The values below come from ChEMBL document CHEMBL4622952, “Synthesis and biological evaluation of Schizandrin derivatives as tubulin polymerization inhibitors” (Bioorg Med Chem Lett, 2020).

Each structure is given as a SMILES string. Calls of active or inactive are those of the source. The rule behind the calls is not given here.

Assay [1] deals with A549. As to the kind of experiment: Antiproliferative activity against human A549 cells assessed as reduction in cell viability measured after 48 hrs by MTT assay. It is filed as functional, cell-based.
Assay [2] in a line: (§1) Antiproliferative activity against human RKOP3 cells assessed as reduction in cell viability measured after 48 hrs by MTT assay. The format is functional, cell-based.
The species entered for assay [3] is Homo sapiens. The assay is described as §1. The format is functional, cell-based.
In assay [4] the test system is DU-145. As to the kind of experiment: Antiproliferative activity against human DU145 cells assessed as reduction in cell viability measured after 48 hrs by MTT assay. The format is functional, cell-based. The following applies: for IC50: DU-145, 48 h.
Assay [5] has as its system HeLa. As to the kind of experiment: Antiproliferative activity against human HeLa cells assessed as reduction in cell viability measured after 48 hrs by MTT assay. The format is functional, cell-based.
Assay [6] relates to HEK293. As to the kind of experiment: Cytotoxicity against human HEK293 cells assessed as reduction in cell viability measured after 48 hrs by MTT assay. The format is cell-based.
The nature of assay [7]: Cell cycle arrest in human RKOP3 cells assessed as accumulation at G0/G1 phase at 1.5 uM measured after 24 hrs by propidium iodide staining based flow cytometry analysis (reference value: 59.59 %). It is filed as functional.
Assay [8] in a line: Cell cycle arrest in human RKOP3 cells assessed as accumulation at G0/G1 phase at 3.3 uM measured after 24 hrs by propidium iodide staining based flow cytometry analysis (reference value: 59.59 %). It is filed as functional.
A short description of assay [9]: Cell cycle arrest in human RKOP3 cells assessed as accumulation at G0/G1 phase at 5 uM measured after 24 hrs by propidium iodide staining based flow cytometry analysis (reference value: 59.59 %). The format is functional.
Assay [10] in a line: Induction of apoptosis in human RKOP3 cells assessed as live cells at 1.5 uM measured after 48 hrs by annexinV-FITC/propidium iodide staining based flow cytometry analysis (reference value: 98.19 %). The format is functional.
The nature of assay [11]: Induction of apoptosis in human RKOP3 cells assessed as early apoptotic cells at 1.5 uM measured after 48 hrs by annexinV-FITC/propidium iodide staining based flow cytometry analysis (reference value: 1.8 %). It is filed as functional.
Assay [12] in a line: Induction of apoptosis in human RKOP3 cells assessed as late apoptotic cells at 1.5 uM measured after 48 hrs by annexinV-FITC/propidium iodide staining based flow cytometry analysis (reference value: 0.01 %). The format is functional.
Assay [13] in a line: Induction of apoptosis in human RKOP3 cells assessed as necrotic cells at 1.5 uM measured after 48 hrs by annexinV-FITC/propidium iodide staining based flow cytometry analysis (reference value: 0 %). The format is functional.
Assay [14] is described as follows: Induction of apoptosis in human RKOP3 cells assessed as live cells at 3.3 uM measured after 48 hrs by annexinV-FITC/propidium iodide staining based flow cytometry analysis (reference value: 98.19 %). It is filed as functional.
Assay [15] in a line: Induction of apoptosis in human RKOP3 cells assessed as early apoptotic cells at 3.3 uM measured after 48 hrs by annexinV-FITC/propidium iodide staining based flow cytometry analysis (reference value: 1.8 %). The format is functional.
Assay [16] can be described thus: Induction of apoptosis in human RKOP3 cells assessed as late apoptotic cells at 3.3 uM measured after 48 hrs by annexinV-FITC/propidium iodide staining based flow cytometry analysis (reference value: 0.01 %). The format is functional.
Assay [17] can be described thus: Induction of apoptosis in human RKOP3 cells assessed as necrotic cells at 3.3 uM measured after 48 hrs by annexinV-FITC/propidium iodide staining based flow cytometry analysis (reference value: 0 %). It is filed as functional.
Assay [18] is described as follows: Induction of apoptosis in human RKOP3 cells assessed as live cells at 5 uM measured after 48 hrs by annexinV-FITC/propidium iodide staining based flow cytometry analysis (reference value: 98.19 %). The format is functional.
Assay [19] in a line: Induction of apoptosis in human RKOP3 cells assessed as early apoptotic cells at 5 uM measured after 48 hrs by annexinV-FITC/propidium iodide staining based flow cytometry analysis (reference value: 1.8 %). It is filed as functional.
The nature of assay [20]: Induction of apoptosis in human RKOP3 cells assessed as late apoptotic cells at 5 uM measured after 48 hrs by annexinV-FITC/propidium iodide staining based flow cytometry analysis (reference value: 0.01 %). The format is functional.
Assay [21] in a line: Induction of apoptosis in human RKOP3 cells assessed as necrotic cells at 5 uM measured after 48 hrs by annexinV-FITC/propidium iodide staining based flow cytometry analysis (reference value: 0 %). It is filed as functional.
The target in assay [22] is T1, Tubulin (Homo sapiens) (UniProt P68371+Q9H4B7+P0DPH7+P68366+Q13509+Q71U36+P04350+Q3ZCM7+P07437+P68363+Q9BQE3+Q6PEY2+Q13885+Q9BVA1+Q9BUF5). Put plainly: Inhibition of tubulin […] in human DU145 cells assessed as increase in soluble fraction of tubulin at […] measured after 24 hrs by Western blot analysis. The format is cell-based. The following applies: DU-145.

Assay [23] addresses T1, Tubulin (Homo sapiens). As to the kind of experiment: Inhibition of tubulin polymerization in human HeLa cells assessed as disruption of microtubule network at 10 uM measured after 24 hrs by immunofluorescence assay. The format is cell-based.
Assay [24] has as its system DU-145. As to the kind of experiment: Induction of apoptosis in human DU145 cells assessed as live cells at 2.54 uM measured after 24 hrs by annexinV-FITC/propidium iodide staining based flow cytometry analysis (reference value: 97.09 %). The format is functional.
Assay [25] has as its system DU-145. Put plainly: Induction of apoptosis in human DU145 cells assessed as early apoptotic cells at 2.54 uM measured after 24 hrs by annexinV-FITC/propidium iodide staining based flow cytometry analysis (reference value: 2.34 %). The format is functional.
The test system of assay [26] is DU-145. As to the kind of experiment: Induction of apoptosis in human DU145 cells assessed as late apoptotic cells at 2.54 uM measured after 24 hrs by annexinV-FITC/propidium iodide staining based flow cytometry analysis (reference value: 0.05 %). The format is functional.
For assay [27], the system named is DU-145. Put plainly: Induction of apoptosis in human DU145 cells assessed as necrotic cells at 2.54 uM measured after 24 hrs by annexinV-FITC/propidium iodide staining based flow cytometry analysis (reference value: 0.52 %). The format is functional.
Assay [28] can be described thus: Induction of apoptosis in human RKOP3 cells assessed as live cells at 2 uM measured after 24 hrs by annexinV-FITC/propidium iodide staining based flow cytometry analysis (reference value: 98.19 %). It is filed as functional.
A short description of assay [29]: Induction of apoptosis in human RKOP3 cells assessed as early apoptotic cells at 2 uM measured after 24 hrs by annexinV-FITC/propidium iodide staining based flow cytometry analysis (reference value: 1.8 %). It is filed as functional.
Assay [30] in a line: Induction of apoptosis in human RKOP3 cells assessed as late apoptotic cells at 2 uM measured after 24 hrs by annexinV-FITC/propidium iodide staining based flow cytometry analysis (reference value: 0.01 %). The format is functional.
A short description of assay [31]: Induction of apoptosis in human RKOP3 cells assessed as necrotic cells at 2 uM measured after 24 hrs by annexinV-FITC/propidium iodide staining based flow cytometry analysis (reference value: 0 %). It is filed as functional.

Consider `CCCCCCCCCC(=O)O/N=C1\C=C2C[C@H](C)[C@@]3(C)Cc4cc(OC)c(OC)c(OC)c4C23C(OC)=C1OC` (stereo partly drawn), for which the inhibition entry in assay [1], in assay [3], in assay [4] and in assay [5] was “Dose-dependent effect” throughout. For the same molecule, the IC50 in assay [1] (A549, 48 h) was found to be 12.3 µM; in [2], 3.35 µM; in assay [4], 10.5 µM; in [5] it was 60.2 µM; in assay [6] (Homo sapiens, HEK293, 48 h, read-out: IC50) it was 84.5 µM. Besides, the Activity is 60.68% in [7]; 55.32% in assay [8]; 50.56% in assay [9]; 92.41% in [10]; 7.02% in [11]; 0.57% in assay [12]. For the same molecule, the Activity in [13] is 0%; in assay [14], 90.64%; in assay [15], 9.05%; in assay [16] it was 0.29%; in assay [17], 0.02%; in assay [18], 76.06%. Besides, the Activity in assay [19] was 21.6%; in [20], 2.3%; in assay [21] it was 0.04%. Further, the inhibition entry in assay [22] and in assay [23] was “Active” in each case.
On to `COc1cccc2c1C(=O)c1c(O)c3c(c(O)c1C2=O)C[C@@](O)(C(=O)CO)C[C@@H]3O[C@H]1C[C@H](N)[C@H](O)[C@H](C)O1` [DOXORUBICIN], for which the IC50 in assay [2] was 2.23 µM; in assay [4] it was 2.54 µM; in assay [5] it was 1.94 µM; in [6] (hek293), “Not Active”. In addition, the Activity in [24] is on record as 46.09%; in [25] it was 46.08%; in [26] it was 7.83%; in assay [27] it was 0%; in assay [28] it was 60.97%; in assay [29] it was 37.21%. Further, the figures for the Activity in assay [30] and in assay [31] were 1.77% and 0.05%, respectively.
